Reference: US20250144224A1, “ABL INHIBITORS AND USES THEREOF” (The Regents of the University of California, priority 2021, published 2025)

Key:
K562 cells (wild-type) = experiment: CellTiter-Glo cell viability, K562 wild-type; details: Homo sapiens, K562, 72 h, read-out: EC50 (nM) CTG K562 wt
[1] = system: K562 cells (CRISPR base-edited Bcr-Abl T315I); experiment: CellTiter-Glo cell viability, K562 Bcr-Abl T315I; details: Homo sapiens, K562, 72 h, read-out: EC50 (nM) CTG K562 T315I
Abl wt = Abl wt (Homo sapiens, UniProt P00519); experiment: SelectScreen Z'LYTE kinase assay, Abl wt
Abl_T315I = Abl_T315I (Homo sapiens, UniProt P00519, T315I); experiment: SelectScreen Z'LYTE kinase assay, Abl T315I
[2] = Parallel artificial membrane permeability assay (PAMPA); type: in vitro ADME
Method: PAMPA was performed by Quintara Discovery using the BioCoat Pre-coated PAMPA Plate System (Corning) as described previously (15) and based on manufacturer's recommendations. All compounds were assessed at 100 μM in PBS. Compound concentrations in donor and acceptor compartments were quantified using liquid chromatography-mass spectrometry (LC-MS) 5 h following compound addition into the donor compartment.

[3] = system: K562 CRISPRi or CRISPRa cells expressing sgRNAs targeting IFITM1-3; experiment: Internally normalized cellular fluorescence uptake assay; details: 24 h; TAMRA-N3 10 nM, TAMRA-PEG8-N3 1 μM, RapaTAMRA 1 nM

Row | Structure (SMILES) | EC50 (K562 cells (wild-type)) [nM] | EC50 [1] [nM] | other results
1 | Cc1nc(Nc2ncc(C(=O)Nc3c(C)cccc3Cl)s2)cc(N2CCN(C(=O)CCOCCOCCOCCOCCOCCOCCOCCOCCOCCOCCNC(=O)C3CCN(c4ncc(C(=O)Nc5ccc(OC(F)(F)Cl)cc5)cc4-c4ccn[nH]4)CC3)CC2)n1 [DasatiLink-2] | 2.49 | > 300 | 
2 | Cc1nc(Nc2ncc(C(=O)Nc3c(C)cccc3Cl)s2)cc(N2CCN(C(=O)CCOCCOCCOCCOCCOCCOCCOCCOCCNC(=O)C3CCN(c4ncc(C(=O)Nc5ccc(OC(F)(F)Cl)cc5)cc4-c4ccn[nH]4)CC3)CC2)n1 [DasatiLink-3] | 2.94 | > 300 | EC50 (Abl wt): 1.04 nM
3 | Cc1ccc(C(=O)Nc2ccc(CN3CCN(C(=O)CCOCCOCCOCCOCCOCCOCCOCCOCCOCCOCCOCCOCCOCCOCCOCCOCCOCCOCCOCCOCCOCCOCCOCCOCCOCCOCCOCCOCCNC(=O)C4CCN(c5ncc(C(=O)Nc6ccc(OC(F)(F)Cl)cc6)cc5-c5ccn[nH]5)CC4)CC3)c(C(F)(F)F)c2)cc1C#Cc1cnc2cccnn12 [PonatiLink-1-28] | 1.82 | 49.1 | 
4 | Cc1ccc(C(=O)Nc2ccc(CN3CCN(C)CC3)c(C(F)(F)F)c2)cc1C#Cc1cnc2cc(OCCOCCOCCOCCOCCOCCOCCNC(=O)CCOCCOCCOCCOCCNC(=O)C3CCN(c4ncc(C(=O)Nc5ccc(OC(F)(F)Cl)cc5)cc4-c4ccn[nH]4)CC3)ccn12 [PonatiLink-2-7-4] | 0.39 | 1.3 | 
5 | Cc1ccc(C(=O)Nc2ccc(CN3CCN(C)CC3)c(C(F)(F)F)c2)cc1C#Cc1cnc2cc(OCCOCCOCCOCCOCCOCCOCCNC(=O)CCOCCOCCOCCOCCOCCOCCNC(=O)C3CCN(c4ncc(C(=O)Nc5ccc(OC(F)(F)Cl)cc5)cc4-c4ccn[nH]4)CC3)ccn12 [PonatiLink-2-7-6] | 0.38 | 1.06 | 
6 | Cc1ccc(C(=O)Nc2ccc(CN3CCN(C)CC3)c(C(F)(F)F)c2)cc1C#Cc1cnc2cc(OCCOCCOCCOCCOCCOCCOCCNC(=O)CCOCCOCCOCCOCCOCCOCCOCCOCCNC(=O)C3CCN(c4ncc(C(=O)Nc5ccc(OC(F)(F)Cl)cc5)cc4-c4ccn[nH]4)CC3)ccn12 [PonatiLink-2-7-8] | 0.36 | 0.94 | 
7 | Cc1ccc(C(=O)Nc2ccc(CN3CCN(C)CC3)c(C(F)(F)F)c2)cc1C#Cc1cnc2cc(OCCOCCOCCOCCOCCOCCOCCNC(=O)CCOCCOCCOCCOCCOCCOCCOCCOCCOCCOCCNC(=O)C3CCN(c4ncc(C(=O)Nc5ccc(OC(F)(F)Cl)cc5)cc4-c4ccn[nH]4)CC3)ccn12 [PonatiLink-2-7-10] | 0.43 | 0.94 | 
8 | CO[C@@H]1C[C@@H]2CC[C@@H](C)[C@@](O)(O2)C(=O)C(=O)N2CCCC[C@@H]2C(=O)O[C@H]([C@H](C)C[C@H]2CC[C@H](OCCOCc3cn(CCOCCOCCOCCOCCOCCOCCOCCOCCC(=O)NCCCCn4nc(-c5ccc6oc(N)nc6c5)c5c(N)ncnc54)nn3)[C@H](OC)C2)CC(=O)[C@H](C)/C=C(\C)[C@H](O)[C@@H](OC)C(=O)[C@H](C)C[C@H](C)/C=C/C=C/C=C/1C [RapaLink-1] |  |  | artificial membrane permeability by PAMPA ([2]; PAMPA): no measurable permeability
9 | CO[C@H]1C[C@@H]2CC[C@@H](C)[C@@](O)(O2)C(=O)C(=O)N2CCCC[C@H]2C(=O)O[C@H]([C@H](C)C[C@@H]2CC[C@@H](OCCOCc3cn(CCOCCOCCOCCOCCOCCOCCOCCOCCNC(=O)c4ccc(C(=O)[O-])c(-c5c6ccc(=[N+](C)C)cc-6oc6cc(N(C)C)ccc56)c4)nn3)[C@H](OC)C2)CC(=O)[C@H](C)/C=C(\C)[C@@H](O)[C@@H](OC)C(=O)[C@H](C)C[C@H](C)/C=C/C=C/C=C/1C [RapaTAMRA] |  |  | change in relative cellular uptake with IFITM1-3 knockdown / overexpression [3]: decreased uptake upon knockdown of IFITM1-3 and increased uptake upon overexpression
10 | O=C(Nc1ccc(OC(F)(F)Cl)cc1)c1cnc(N2CC[C@@H](O)C2)c(-c2ccn[nH]2)c1 [asciminib, reference compound] |  |  | artificial membrane permeability by PAMPA ([2]; 100 μM in PBS, 5 h, LC-MS): readily permeable
11 | Cc1nc(Nc2ncc(C(=O)Nc3c(C)cccc3Cl)s2)cc(N2CCN(CCO)CC2)n1 [dasatinib] |  |  | artificial membrane permeability by PAMPA ([2]; 100 μM in PBS, 5 h, LC-MS): readily permeable
12 | CO[C@H]1C[C@@H]2CC[C@@H](C)[C@@](O)(O2)C(=O)C(=O)N2CCCC[C@H]2C(=O)O[C@H]([C@H](C)C[C@@H]2CC[C@@H](O)[C@H](OC)C2)CC(=O)[C@H](C)/C=C(\C)[C@@H](O)[C@@H](OC)C(=O)[C@H](C)C[C@H](C)/C=C/C=C/C=C/1C [rapamycin] |  |  | artificial membrane permeability by PAMPA ([2]; 100 μM in PBS, 5 h, LC-MS): readily permeable
13 | CC(C)n1nc(-c2ccc3oc(N)nc3c2)c2c(N)ncnc21 [sapanisertib] |  |  | artificial membrane permeability by PAMPA ([2]; 100 μM in PBS, 5 h, LC-MS): readily permeable

More lines, main results first:

Row | EC50 (K562 cells (wild-type)) [nM] | EC50 [1] [nM] | Structure (SMILES) | other results
14 | 2.62 | > 300 | Cc1nc(Nc2ncc(C(=O)Nc3c(C)cccc3Cl)s2)cc(N2CCN(C(=O)CCOCCOCCOCCOCCOCCOCCNC(=O)C3CCN(c4ncc(C(=O)Nc5ccc(OC(F)(F)Cl)cc5)cc4-c4ccn[nH]4)CC3)CC2)n1 [DasatiLink-4] | EC50 (Abl wt): 1.81 nM
15 | 2.76 | 43.7 | Cc1ccc(C(=O)Nc2ccc(CN3CCN(C(=O)CCOCCOCCOCCOCCOCCOCCOCCOCCOCCOCCOCCOCCNC(=O)C4CCN(c5ncc(C(=O)Nc6ccc(OC(F)(F)Cl)cc6)cc5-c5ccn[nH]5)CC4)CC3)c(C(F)(F)F)c2)cc1C#Cc1cnc2cccnn12 [PonatiLink-1-12] | EC50 (Abl wt): 319 nM; EC50 (Abl_T315I): 3580 nM
16 | 1.4 | 28.7 | Cc1ccc(C(=O)Nc2ccc(CN3CCN(C(=O)CCOCCOCCOCCOCCOCCOCCOCCOCCOCCOCCOCCOCCOCCOCCOCCOCCNC(=O)C4CCN(c5ncc(C(=O)Nc6ccc(OC(F)(F)Cl)cc6)cc5-c5ccn[nH]5)CC4)CC3)c(C(F)(F)F)c2)cc1C#Cc1cnc2cccnn12 [PonatiLink-1-16] | EC50 (Abl wt): 82 nM; EC50 (Abl_T315I): 229 nM
17 | 1.02 | 26.2 | Cc1ccc(C(=O)Nc2ccc(CN3CCN(C(=O)CCOCCOCCOCCOCCOCCOCCOCCOCCOCCOCCOCCOCCOCCOCCOCCOCCOCCOCCOCCOCCNC(=O)C4CCN(c5ncc(C(=O)Nc6ccc(OC(F)(F)Cl)cc6)cc5-c5ccn[nH]5)CC4)CC3)c(C(F)(F)F)c2)cc1C#Cc1cnc2cccnn12 [PonatiLink-1-20] | EC50 (Abl wt): 10.8 nM; EC50 (Abl_T315I): 215 nM
18 | 0.87 | 26.3 | Cc1ccc(C(=O)Nc2ccc(CN3CCN(C(=O)CCOCCOCCOCCOCCOCCOCCOCCOCCOCCOCCOCCOCCOCCOCCOCCOCCOCCOCCOCCOCCOCCOCCOCCOCCNC(=O)C4CCN(c5ncc(C(=O)Nc6ccc(OC(F)(F)Cl)cc6)cc5-c5ccn[nH]5)CC4)CC3)c(C(F)(F)F)c2)cc1C#Cc1cnc2cccnn12 [PonatiLink-1-24] | 
